Measurements taken from PubChem BioAssay AID2060905 (Molecular Pharmacology Branch, DTP, NCI, 2025).

Test system: 282377-053-R-J1-PDC complex spheroid viability
Test: Anticancer human tumor 282377-053-R-J1-PDC patient-derived colon adenocarcinoma cell line growth inhibition [RAS]
Details: for IC50: curve of first compound; for viability, T/C: stronger effect = lower value
Method in brief: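 Agents were tested in combination matrices in half-log decrements from a top concentration at or near clinical Cmax (10 microM if undetermined). Targets were multi-cell spheroids of tumour lines plus HUVEC and MSC stromal cells.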

[1] = second compound 0.000949 µM, first compound 0.0316 µM
[2] = second compound 0.000949 µM, first compound 0.1 µM
[3] = second compound 0.000949 µM, first compound 0.316 µM
[4] = second compound 0.000949 µM, first compound 1 µM
[5] = second compound 0.000949 µM, first compound 3.16 µM
[6] = second compound 0.000949 µM, first compound 10 µM
[7] = second compound 0.003 µM, first compound 0.0316 µM
[8] = second compound 0.003 µM, first compound 0.1 µM
[9] = second compound 0.003 µM, first compound 0.316 µM
[10] = second compound 0.003 µM, first compound 1 µM
[11] = second compound 0.003 µM, first compound 3.16 µM
[12] = second compound 0.003 µM, first compound 10 µM
[13] = second compound 0.00949 µM, first compound 0.0316 µM
[14] = second compound 0.00949 µM, first compound 0.1 µM
[15] = second compound 0.00949 µM, first compound 0.316 µM
[16] = second compound 0.00949 µM, first compound 1 µM
[17] = second compound 0.00949 µM, first compound 3.16 µM
[18] = second compound 0.00949 µM, first compound 10 µM
[19] = second compound 0.03 µM, first compound 0.0316 µM
[20] = second compound 0.03 µM, first compound 0.1 µM
[21] = second compound 0.03 µM, first compound 0.316 µM
[22] = second compound 0.03 µM, first compound 1 µM
[23] = second compound 0.03 µM, first compound 3.16 µM
[24] = second compound 0.03 µM, first compound 10 µM
[25] = second compound 0.0949 µM, first compound 0.0316 µM
[26] = second compound 0.0949 µM, first compound 0.1 µM
[27] = second compound 0.0949 µM, first compound 0.316 µM
[28] = second compound 0.0949 µM, first compound 1 µM
[29] = second compound 0.0949 µM, first compound 3.16 µM
[30] = second compound 0.0949 µM, first compound 10 µM
[31] = second compound 0.3 µM, first compound 0.0316 µM
[32] = second compound 0.3 µM, first compound 0.1 µM
[33] = second compound 0.3 µM, first compound 0.316 µM
[34] = second compound 0.3 µM, first compound 1 µM
[35] = second compound 0.3 µM, first compound 3.16 µM
[36] = second compound 0.3 µM, first compound 10 µM
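Also: spheroids exposed to agents for seven days before readout.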
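For viability, T/C in this document: luminescence viability as percent of DMSO vehicle control wells.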

CCc1c2c(nc3ccc(O)cc13)-c1cc3c(c(=O)n1C2)COC(=O)[C@]3(O)CC + C#Cc1c(F)ccc2cc(O)cc(-c3ncc4c(N5CC6CCC(C5)N6)nc(OCC56CCCN5CC(F)C6)nc4c3F)c12
IC50 (second compound 0.0316 µM): > 0.3 µM
IC50 (second compound 0.1 µM): > 0.3 µM
IC50 (second compound 0.316 µM): > 0.3 µM
IC50 (second compound 1 µM): > 0.3 µM
IC50 (second compound 3.16 µM): > 0.3 µM
IC50 (second compound 10 µM): > 0.3 µM
viability, T/C (second compound 0.0316 µM, first compound 0.000949 µM): 97%
viability, T/C (second compound 0.0316 µM, first compound 0.003 µM): 131%
viability, T/C (second compound 0.0316 µM, first compound 0.00949 µM): 120%
viability, T/C (second compound 0.0316 µM, first compound 0.03 µM): 96.8%
viability, T/C (second compound 0.0316 µM, first compound 0.0949 µM): 88.2%
viability, T/C (second compound 0.0316 µM, first compound 0.3 µM): 53%
viability, T/C (second compound 0.1 µM, first compound 0.000949 µM): 113%
viability, T/C (second compound 0.1 µM, first compound 0.003 µM): 122%
viability, T/C (second compound 0.1 µM, first compound 0.00949 µM): 130%
viability, T/C (second compound 0.1 µM, first compound 0.03 µM): 95.8%
viability, T/C (second compound 0.1 µM, first compound 0.0949 µM): 84.5%
viability, T/C (second compound 0.1 µM, first compound 0.3 µM): 61.4%
viability, T/C (second compound 0.316 µM, first compound 0.000949 µM): 117%
viability, T/C (second compound 0.316 µM, first compound 0.003 µM): 128%
viability, T/C (second compound 0.316 µM, first compound 0.00949 µM): 109%
viability, T/C (second compound 0.316 µM, first compound 0.03 µM): 101%
viability, T/C (second compound 0.316 µM, first compound 0.0949 µM): 85.6%
viability, T/C (second compound 0.316 µM, first compound 0.3 µM): 55.6%
viability, T/C (second compound 1 µM, first compound 0.000949 µM): 108%
viability, T/C (second compound 1 µM, first compound 0.003 µM): 104%
viability, T/C (second compound 1 µM, first compound 0.00949 µM): 113%
viability, T/C (second compound 1 µM, first compound 0.03 µM): 95.3%
viability, T/C (second compound 1 µM, first compound 0.0949 µM): 80.1%
viability, T/C (second compound 1 µM, first compound 0.3 µM): 61%
viability, T/C (second compound 3.16 µM, first compound 0.000949 µM): 115%
viability, T/C (second compound 3.16 µM, first compound 0.003 µM): 127%
viability, T/C (second compound 3.16 µM, first compound 0.00949 µM): 125%
viability, T/C (second compound 3.16 µM, first compound 0.03 µM): 100%
viability, T/C (second compound 3.16 µM, first compound 0.0949 µM): 97.5%
viability, T/C (second compound 3.16 µM, first compound 0.3 µM): 66.3%
viability, T/C (second compound 10 µM, first compound 0.000949 µM): 97.1%
viability, T/C (second compound 10 µM, first compound 0.003 µM): 112%
viability, T/C (second compound 10 µM, first compound 0.00949 µM): 116%
viability, T/C (second compound 10 µM, first compound 0.03 µM): 102%
viability, T/C (second compound 10 µM, first compound 0.0949 µM): 87.9%
viability, T/C (second compound 10 µM, first compound 0.3 µM): 63.5%

CC(C)NCC(C(=O)N1CCN(c2ncnc3c2C(C)CC3O)CC1)c1ccc(Cl)cc1 (stereo unspecified) + CCn1c(-c2cc(N3CCN(C)CC3)cnc2C(C)OC)c2c3cc(ccc31)-c1csc(n1)CC(NC(=O)C1CC1C)C(=O)N1CCCC(N1)C(=O)OCC(C)(C)C2
IC50 (second compound 0.000949 µM): > 10 µM
IC50 (second compound 0.003 µM): > 10 µM
IC50 (second compound 0.00949 µM): > 10 µM
IC50 (second compound 0.03 µM): > 10 µM
IC50 (second compound 0.0949 µM): > 10 µM
IC50 (second compound 0.3 µM): > 10 µM
viability, T/C [1]: 96.1%
viability, T/C [2]: 93.7%
viability, T/C [3]: 80.8%
viability, T/C [4]: 79.4%
viability, T/C [5]: 78%
viability, T/C [6]: 76.5%
viability, T/C [7]: 90.7%
viability, T/C [8]: 106%
viability, T/C [9]: 88.2%
viability, T/C [10]: 71.8%
viability, T/C [11]: 76.2%
viability, T/C [12]: 68.3%
viability, T/C [13]: 93%
viability, T/C [14]: 119%
viability, T/C [15]: 79.4%
viability, T/C [16]: 68%
viability, T/C [17]: 70.7%
viability, T/C [18]: 69.1%
viability, T/C [19]: 111%
viability, T/C [20]: 83.1%
viability, T/C [21]: 82.5%
viability, T/C [22]: 70%
viability, T/C [23]: 65.3%
viability, T/C [24]: 64.4%
viability, T/C [25]: 95.3%
viability, T/C [26]: 87.6%
viability, T/C [27]: 93.8%
viability, T/C [28]: 62.8%
viability, T/C [29]: 63.8%
viability, T/C [30]: 65.4%
viability, T/C [31]: 100%
viability, T/C [32]: 86.6%
viability, T/C [33]: 109%
viability, T/C [34]: 69.1%
viability, T/C [35]: 64.6%
viability, T/C [36]: 69.9%

C[C@@H](NC(=O)c1ncnc(N)c1Cl)c1ncc(C(=O)Nc2cc(C(F)(F)F)c(Cl)cn2)s1 + CCn1c(-c2cc(N3CCN(C)CC3)cnc2C(C)OC)c2c3cc(ccc31)-c1csc(n1)CC(NC(=O)C1CC1C)C(=O)N1CCCC(N1)C(=O)OCC(C)(C)C2
IC50 (second compound 0.000949 µM): > 10 µM
IC50 (second compound 0.003 µM): > 10 µM
IC50 (second compound 0.00949 µM): > 10 µM
IC50 (second compound 0.03 µM): > 10 µM
IC50 (second compound 0.0949 µM): > 10 µM
IC50 (second compound 0.3 µM): > 10 µM
viability, T/C [1]: 82.7%
viability, T/C [2]: 100%
viability, T/C [3]: 80%
viability, T/C [4]: 82.7%
viability, T/C [5]: 75.6%
viability, T/C [6]: 68.8%
viability, T/C [7]: 89.8%
viability, T/C [8]: 125%
viability, T/C [9]: 81.8%
viability, T/C [10]: 90.2%
viability, T/C [11]: 70.6%
viability, T/C [12]: 59.2%
viability, T/C [13]: 110%
viability, T/C [14]: 115%
viability, T/C [15]: 85.8%
viability, T/C [16]: 94%
viability, T/C [17]: 68%
viability, T/C [18]: 57.9%
viability, T/C [19]: 97.2%
viability, T/C [20]: 106%
viability, T/C [21]: 89.4%
viability, T/C [22]: 96%
viability, T/C [23]: 63.2%
viability, T/C [24]: 60.1%
viability, T/C [25]: 110%
viability, T/C [26]: 105%
viability, T/C [27]: 77.1%
viability, T/C [28]: 94.2%
viability, T/C [29]: 73.1%
viability, T/C [30]: 74.2%
viability, T/C [31]: 94.3%
viability, T/C [32]: 103%
viability, T/C [33]: 89.3%
viability, T/C [34]: 108%
viability, T/C [35]: 86.4%
viability, T/C [36]: 61.2%
